# Results: ChEMBL document CHEMBL3885881, “DrugMatrix”
# Species: Rattus norvegicus
# Experiment: DrugMatrix - Regimen: Daily Repeat
# Format: toxicity, organism-based, Sprague-Dawley
# Parameters: regimen Daily Repeat, gender Male, age 6-8 weeks
# Conditions: in vivo, iv, vehicle 100 % SALINE; for ABSOLUTE BASOPHIL / ABSOLUTE EOSINOPHIL / ABSOLUTE LYMPHOCYTE / ABSOLUTE MONOCYTE / ABSOLUTE SEGMENTED NEUTROPHIL / BASOPHIL / EOSINOPHIL / ERYTHROCYTE COUNT / HEMATOCRIT / HEMOGLOBIN / LEUKOCYTE COUNT / LYMPHOCYTE / MEAN CORPUSCULAR HEMOGLOBIN / MONOCYTE / NEUTROPHIL / NUCLEATED RED BLOOD CELLS / PLATELET COUNT / MEAN CORPUSCULAR HEMOGLOBIN CONCENTRATION / MEAN CORPUSCULAR VOLUME: tissue Blood
# [1] = 6 mg/kg, 72 h, dose level High, time 3 day
# [2] = 6 mg/kg, 72 h, tissue Plasma, dose level High, time 3 day
# [3] = 6 mg/kg, 120 h, dose level High, time 5 day
# [4] = 6 mg/kg, 120 h, tissue Plasma, dose level High, time 5 day
# [5] = […], 72 h, dose 0.12 mg/Kg, dose level Low, time 3 day
# [6] = […], 72 h, tissue Plasma, dose 0.12 mg/Kg, dose level Low, time 3 day
# [7] = […], 120 h, dose 0.12 mg/Kg, dose level Low, time 5 day
# [8] = […], 120 h, tissue Plasma, dose 0.12 mg/Kg, dose level Low, time 5 day
substance,measurement,setting,value
SODIUM NITROPRUSSIDE,ABSOLUTE BASOPHIL,[1],0 CELLS/uL
same,ABSOLUTE EOSINOPHIL,[1],0 CELLS/uL
same,ABSOLUTE LYMPHOCYTE,[1],16076 CELLS/uL
same,ABSOLUTE MONOCYTE,[1],195 CELLS/uL
same,ABSOLUTE SEGMENTED NEUTROPHIL,[1],1029 CELLS/uL
same,BASOPHIL,[1],0%
same,EOSINOPHIL,[1],0%
same,ERYTHROCYTE COUNT,[1],6.07 x10E6/uL
same,HEMATOCRIT,[1],38.07%
same,HEMOGLOBIN,[1],15 G/DL
same,LEUKOCYTE COUNT,[1],17.3 x10E3/uL
same,LYMPHOCYTE,[1],92.67%
same,MEAN CORPUSCULAR HEMOGLOBIN,[1],24.73 pg
same,MONOCYTE,[1],1%
same,NEUTROPHIL,[1],6.33%
same,NUCLEATED RED BLOOD CELLS,[1],0 /100WBC
same,PLATELET COUNT,[1],1432 x10E3/uL
same,ALANINE AMINOTRANSFERASE,[2],34.67 u/L
same,ALBUMIN,[2],4.5 G/DL
same,ALKALINE PHOSPHATASE,[2],308.33 u/L
same,ASPARTATE AMINOTRANSFERASE,[2],90.67 u/L
same,BLOOD UREA NITROGEN,[2],21.33 mg/dL
same,CARBON DIOXIDE,[2],23.67 mmol/L
same,CHOLESTEROL,[2],68 mg/dL
same,CREATINE PHOSPHOKINASE,[2],251 u/L
same,CREATININE,[2],0.17 mg/dL
same,GLUCOSE,[2],173 mg/dL
same,LACTATE DEHYDROGENASE,[2],383.67 u/L
same,LIPASE,[2],8.33 u/L
same,PHOSPHORUS,[2],13.27 mg/dL
same,POTASSIUM,[2],6.61 MEQ/L
same,TOTAL BILIRUBIN,[2],0.1 mg/dL
same,TOTAL PROTEIN,[2],6.4 G/DL
same,URIC ACID,[2],1.87 mg/dL
same,ABSOLUTE BASOPHIL,[3],0 CELLS/uL
same,ABSOLUTE EOSINOPHIL,[3],139 CELLS/uL
same,ABSOLUTE LYMPHOCYTE,[3],12315 CELLS/uL
same,ABSOLUTE MONOCYTE,[3],50.33 CELLS/uL
same,ABSOLUTE SEGMENTED NEUTROPHIL,[3],1129 CELLS/uL
same,BASOPHIL,[3],0%
same,EOSINOPHIL,[3],1%
same,ERYTHROCYTE COUNT,[3],5.93 x10E6/uL
same,HEMATOCRIT,[3],37.1%
same,HEMOGLOBIN,[3],14.97 G/DL
same,LEUKOCYTE COUNT,[3],13.63 x10E3/uL
same,LYMPHOCYTE,[3],90.33%
same,MEAN CORPUSCULAR HEMOGLOBIN,[3],25.2 pg
same,MEAN CORPUSCULAR HEMOGLOBIN CONCENTRATION,[3],40.33 G/DL
same,MEAN CORPUSCULAR VOLUME,[3],62.57 fL
same,MONOCYTE,[3],0.33%
same,NEUTROPHIL,[3],8.33%
same,NUCLEATED RED BLOOD CELLS,[3],0.33 /100WBC
same,PLATELET COUNT,[3],1277.67 x10E3/uL
same,ALANINE AMINOTRANSFERASE,[4],45.67 u/L
same,ALBUMIN,[4],4.5 G/DL
same,ALKALINE PHOSPHATASE,[4],128.33 u/L
same,ASPARTATE AMINOTRANSFERASE,[4],86 u/L
same,CARBON DIOXIDE,[4],18 mmol/L
same,CHOLESTEROL,[4],61.67 mg/dL
same,CREATINE PHOSPHOKINASE,[4],409.33 u/L
same,CREATININE,[4],0.23 mg/dL
same,LACTATE DEHYDROGENASE,[4],135.67 u/L
same,LIPASE,[4],8.33 u/L
same,PHOSPHORUS,[4],10.9 mg/dL
same,POTASSIUM,[4],16.23 MEQ/L
same,TOTAL BILIRUBIN,[4],0.13 mg/dL
same,TOTAL PROTEIN,[4],6.07 G/DL
same,URIC ACID,[4],1.4 mg/dL
same,ABSOLUTE BASOPHIL,[5],0 CELLS/uL
same,ABSOLUTE EOSINOPHIL,[5],0 CELLS/uL
same,ABSOLUTE LYMPHOCYTE,[5],13522.67 CELLS/uL
same,ABSOLUTE MONOCYTE,[5],88.33 CELLS/uL
same,ABSOLUTE SEGMENTED NEUTROPHIL,[5],1389 CELLS/uL
same,BASOPHIL,[5],0%
same,EOSINOPHIL,[5],0%
same,ERYTHROCYTE COUNT,[5],5.31 x10E6/uL
same,HEMATOCRIT,[5],34.4%
same,HEMOGLOBIN,[5],13.63 G/DL
same,LEUKOCYTE COUNT,[5],15 x10E3/uL
same,MEAN CORPUSCULAR HEMOGLOBIN,[5],25.67 pg
same,MEAN CORPUSCULAR HEMOGLOBIN CONCENTRATION,[5],39.63 G/DL
same,MEAN CORPUSCULAR VOLUME,[5],64.8 fL
same,MONOCYTE,[5],0.67%
same,NEUTROPHIL,[5],9.67%
same,NUCLEATED RED BLOOD CELLS,[5],0.33 /100WBC
same,PLATELET COUNT,[5],1321.67 x10E3/uL
same,ALANINE AMINOTRANSFERASE,[6],54.33 u/L
same,ALBUMIN,[6],4.1 G/DL
same,ALKALINE PHOSPHATASE,[6],342 u/L
same,ASPARTATE AMINOTRANSFERASE,[6],87.33 u/L
same,BLOOD UREA NITROGEN,[6],15 mg/dL
same,CARBON DIOXIDE,[6],26.67 mmol/L
same,CHLORIDE,[6],98.67 MEQ/L
same,CHOLESTEROL,[6],76 mg/dL
same,CREATINE PHOSPHOKINASE,[6],335.67 u/L
same,CREATININE,[6],0.11 mg/dL
same,GLUCOSE,[6],157.67 mg/dL
same,LACTATE DEHYDROGENASE,[6],223 u/L
same,PHOSPHORUS,[6],12.93 mg/dL
same,POTASSIUM,[6],6.73 MEQ/L
same,TOTAL BILIRUBIN,[6],0.23 mg/dL
same,TOTAL PROTEIN,[6],5.9 G/DL
same,ABSOLUTE BASOPHIL,[7],0 CELLS/uL
same,ABSOLUTE EOSINOPHIL,[7],39.33 CELLS/uL
same,ABSOLUTE LYMPHOCYTE,[7],10382.67 CELLS/uL
same,ABSOLUTE MONOCYTE,[7],0 CELLS/uL
same,ABSOLUTE SEGMENTED NEUTROPHIL,[7],444.67 CELLS/uL
same,BASOPHIL,[7],0%
same,EOSINOPHIL,[7],0.33%
same,ERYTHROCYTE COUNT,[7],5.02 x10E6/uL
same,HEMATOCRIT,[7],31.9%
same,HEMOGLOBIN,[7],12.83 G/DL
same,LEUKOCYTE COUNT,[7],10.87 x10E3/uL
same,LYMPHOCYTE,[7],95.67%
same,MEAN CORPUSCULAR HEMOGLOBIN,[7],25.6 pg
same,MEAN CORPUSCULAR HEMOGLOBIN CONCENTRATION,[7],40.23 G/DL
same,MEAN CORPUSCULAR VOLUME,[7],63.6 fL
same,MONOCYTE,[7],0%
same,NEUTROPHIL,[7],4%
same,NUCLEATED RED BLOOD CELLS,[7],0 /100WBC
same,PLATELET COUNT,[7],1212.67 x10E3/uL
same,ALANINE AMINOTRANSFERASE,[8],40.33 u/L
same,ALKALINE PHOSPHATASE,[8],391 u/L
same,ASPARTATE AMINOTRANSFERASE,[8],87.33 u/L
same,BLOOD UREA NITROGEN,[8],17 mg/dL
same,CARBON DIOXIDE,[8],28 mmol/L
same,CHOLESTEROL,[8],71.67 mg/dL
same,CREATINE PHOSPHOKINASE,[8],215.33 u/L
same,CREATININE,[8],0.14 mg/dL
same,GLUCOSE,[8],156.33 mg/dL
same,LACTATE DEHYDROGENASE,[8],79 u/L
same,POTASSIUM,[8],6.73 MEQ/L
same,TOTAL BILIRUBIN,[8],0.23 mg/dL
same,TOTAL PROTEIN,[8],5.87 G/DL
